Experimental data reported in US6949250B2, “Selective algaecides for control of cyanochloronta” (The United States of America as represented by the …, priority 2002, dated 2005).

How the values were obtained:
[1] = test system: chlorophyll a; test: DNA2-59-1 third pond efficacy study: chlorophyll a; format: in vivo; conditions: 0.3 μM, 24 hours after application
Experimental: (§1) The method described by Schrader et al. (2000) was used to determine the potential for using the anthraquinone derivatives as selective algicides in catfish aquaculture ponds. All catfish ponds used in efficacy tests were maintained using commercial pond management practices and were located at the Thad Cochran Pond Facility, Mississippi State University, Stoneville, Miss. Anthraquinone analogs were dissolved in deionized water before application to water within the limnocorrals.
(§2) Limnocorrals in which test compound was applied to the enclosed water were randomly selected, and control (no test compound applied) limnocorrals were included in each efficacy study. For each sampling, two water samples (250 mL) were obtained from within each limnocorral (approximately 6-8 cm below the water surface and from opposite sides of each limnocorral) and mixed together in a 500 mL sample bottle to provide a representative sample of the water contained within the limnocorral.
(§3) For the third efficacy test with DNA2-59-1, twelve limnocorrals (2.44 m in diameter and 1.53 m high) were placed in a 4-ha earthen pond containing a bloom of O. perornata. […]

[2] = test system: geosmin; test: DNA2-59-1 first pond efficacy study: geosmin levels; format: in vivo; conditions: 1 μM
Experimental: as §1
(§4) Limnocorrals in which test compound was applied to the enclosed water were randomly selected, and control (no test compound applied) limnocorrals were included in each efficacy study. […]
(§5) In the first study, application rates of 0.1 μM (37.7 μg/L), 0.3 μM ([…]), and 1.0 μM (377 μg/L) of DNA2-59-1 were tested using limnocorrals (three replicates per concentration) that were of the same type used for testing DNA1-19-1. […] Water samples were also analyzed to determine the persistence of DNA2-59-1 in the pond water, and this analysis was performed by using high-pressure liquid chromatography (HPLC) (method and results are described later).

[3] = test system: 2-methylisoborneol; test: DNA2-59-1 first pond efficacy study: MIB levels; format: in vivo; conditions: 0.3 and 1 μM
Experimental: as §1, §4, §5

[4] = test system: green algae; test: DNA2-59-1 third pond efficacy study: green algae abundance; format: in vivo; conditions: 0.3 μM, from three days after application
Experimental: as §1, §2, §3

[5] = DNA2-59-1 third efficacy study: dissipation rate and half-life in pond water (HPLC); format: physicochemical; conditions: for DNA2-59-1 Levels in Pond Water: third study, 0.3 μM applied
Experimental: For the third efficacy test with DNA2-59-1, twelve limnocorrals (2.44 m in diameter and 1.53 m high) were placed in a 4-ha earthen pond containing a bloom of O. perornata. The same procedures, application rate (0.3 μM), and methods used in the second efficacy test of DNA2-59-1 were used except six limnocorrals were randomly selected to receive an application rate of 0.3 μM DNA2-59-1 while the other six limnocorrals were controls. Water samples were collected before application of DNA2-59-1, 20 minutes after application, and at days 1, 2, 3, 4, and 7. The same tests and methods used in the first efficacy testing of DNA2-59-1 were used.
Approximately 15 mL each of water samples from DNA2-59-1 efficacy testing that were designated for HPLC analysis were placed in scintillation vials and held in a freezer. Water samples were later melted at room temperature, and 5 mL of each sample was then filtered through a nylon membrane filter (13 mm diameter and 0.45 μm; Whatman International, Maidstone, England) using a 5 mL syringe (Hamilton Company, Reno, Nev.) and a 13 mm syringe filter holder (Fisher Scientific Company, Pittsburgh, Pa.). Filtrate (1 mL) was placed in 2 mL vials and capped using teflon/rubber septum caps (National Scientific Company, Jeddah, Saudia Arabia). The filter paper was removed and placed in a scintillation vial to which 2 mL of HPLC grade methanol (Fisher Scientific, Fair Lawn, N.J.) was added and then sonicated for 5 minutes. The methanol solution was then filtered using a nylon membrane acrodisc (25 mm and 0.45 μm; Pall Life Sciences, Ann Arbor, Mich.), and the methanol filtrate was placed in separate 2 mL vials.
Filtrate samples were analyzed using a Waters 2690 Alliance HPLC containing a 996 PDA detector and a XTerra RP 18 column (150 mm×4.6 mm, 5 μm particle size; Waters Corporation, Milford, Mass.). The mobile phase consisted of 25 mM sodium dihydrogenphosphate in 0.1% phosphoric acid (A) and acetonitrile (B). The gradient was from 80A/20B in 15 minutes to 40A/60B. After each run, a 5 minute wash with methanol was performed, followed by equilibrating the column for 10 minutes with 80A/20B. The temperature was set at 40° C., the flow rate was 1 mL/minute, the detection wavelength 256 nm, and the sample injection volume was 10 μL. All solvents used were HPLC grade (Fisher Scientific, Fair Lawn, N.J.).
Means and standard deviations of data were determined and graphed. The graphs were used to help determine the half-life of DNA2-59-1 in the pond water. Because of the short duration of the first efficacy study, the half-life of DNA2-59-1 in the pond water could not be determined.

[6] = test system: Oscillatoria perornata; test: DNA2-59-1 first pond efficacy study: O. perornata abundance; format: in vivo; conditions: first study, 0.1, 0.3 and 1 μM
Experimental: as §1, §4, §5

[7] = test system: Oscillatoria geminata; test: DNA2-59-1 third pond efficacy study: Oscillatoria geminata abundance; format: in vivo; conditions: 0.3 μM, from two days through four days after application
Experimental: as §1, §2, §3

[8] = test system: green algae; test: DNA2-59-1 first pond efficacy study: green algae abundance; format: in vivo; conditions: first study, 0.1, 0.3 and 1 μM
Experimental: as §1, §4, §5

[9] = test system: Anabaena circinalis; test: DNA2-59-1 first pond efficacy study: Anabaena circinalis abundance; format: in vivo
Experimental: as §1, §4, §5

[10] = test system: chlorophyll a; test: DNA2-59-1 first pond efficacy study: chlorophyll a; format: in vivo
Experimental: as §1, §4, §5

[11] = test system: diatoms; test: DNA2-59-1 third pond efficacy study: diatom abundance; format: in vivo; conditions: 0.3 μM, from three days after application
Experimental: as §1, §2, §3

[12] = test system: Oscillatoria perornata; test: DNA1-19-1 first pond efficacy study (limnocorrals): O. perornata abundance; format: in vivo

**Q.** What does the source list for `CC(C)NCc1ccc2c(c1)C(=O)c1ccccc1C2=O` [DNA2-59-1, 2-[methylamino-N-(1′-methylethyl)]-9,10-anthraquinone monophosphate]?
**A.** Chlorophyll a levels (result in words) [1]: significantly reduced; decrease of geosmin levels compared to controls and 0.1 and 0.3 μM (result in words) [2]: to a greater degree and significantly more; decrease of MIB levels compared to controls and 0.1 μM (result in words) [3]: to a greater degree and significantly more; Numbers of green algae vs control limnocorrals (result in words) [4]: significantly higher; half-life at 0.3 μM ([5]; pond water in limnocorrals (earthen catfish pond), third efficacy study): 19 h; DNA2-59-1 Levels in Pond Water ([5]; 0 hours): 90.6 ± 7.9 µg/L; DNA2-59-1 Levels in Pond Water ([5]; 24 hours): 31.5 ± 4.4 µg/L; DNA2-59-1 Levels in Pond Water ([5]; 48 hours): 9.2 ± 3.2 µg/L; DNA2-59-1 Levels in Pond Water ([5]; 72 hours): 2.2 ± 0.5 µg/L; DNA2-59-1 Levels in Pond Water ([5]; 96 hours): 0 µg/L; numbers of O. perornata filaments compared to controls (result in words) [6]: significantly reduced; abundance of Oscillatoria geminate vs controls (result in words) [7]: significantly lower than controls; Numbers of green algae compared to controls (result in words) [8]: not significantly affected; Numbers of Anabaena circinalis compared to controls (result in words) ([9]; 1 μM): significantly reduced; filaments of A. circinalis present (result in words) ([9]; 16 hours after application of 1 μM): no filaments of A. circinalis were observed to be present; Chlorophyll a levels significantly reduced compared to controls (result in words) ([10]; 0.1 μM): not; chlorophyll a levels compared to controls (result in words) ([10]; 1 and 0.3 μM): significantly reduced; Numbers of diatoms vs control limnocorrals (result in words) [11]: significantly higher

**Q.** Which results are given for `CCN(CC)CCCC(C)NCc1ccc2c(c1)C(=O)c1ccccc1C2=O.O=P(O)(O)O.O=P(O)(O)O` (centres unmarked) [DNA1-19-1, 2-[methylamino-N-(1′-methyl-4′-N,N-diethylaminobutyl)]-9,10-anthraquinone diphosphate]?
**A.** selectively reducing numbers of O. perornata and MIB levels in pond water (result in words) ([12]; applied at 2 μM): effective; Numbers of filaments of O. perornata (result in words) ([12]; first study, 2 μM, numbers began to increase within 3 days): significantly reduced
